Reference: patent US20110319424A1, “NAPHTHYRIDIN-2(1H) -ONE COMPOUNDS USEFUL AS ANTIBACTERIALS” (priority 2008, published 2011)
Values after ≈ are worked out from the molar mass of the structure shown.

Tests used:
Type in all cases: cell-based
[1] = General antimicrobial activity assay (whole-cell, CLSI broth microdilution, MIC); conditions: against a strain of at least one of the organisms listed; broth microdilution, 0.016 to 64 μg/mL
Experimental: (§1) General Antimicrobial Activity Assay
(§2) Whole-cell antimicrobial activity was determined by broth microdilution using the Clinical and Laboratory Standards Institute (CLSI) recommended procedure, Document M7-A7, “Methods for Dilution Susceptibility Tests for Bacteria that Grow Aerobically”. The compounds were tested in serial two-fold dilutions ranging from 0.016 to 64 μg/mL.
(§3) Compounds were evaluated against gram-positive organisms, selected from i) Staphylococcus aureus, ii) Streptococcus pneumoniae, and iii) Enterococcus faecalis. Two compounds were additionally evaluated against Streptococcus pyogenes, and Enterococcus faecium.
(§4) In addition, compounds were evaluated against gram-negative organisms selected from iv) Haemophilus influenzae, v) Moraxella catarrhalis and vi) Escherichia coll. Two compounds were additionally evaluated against Pseudomonas aeruginosa, Proteus mirabilis, Enterobacter cloacae, Enterobacter aerogenes, Klebsiella pneumoniae and Stenotrophomonas maltophilia.
(§5) The minimum inhibitory concentration (MIC) was determined as the lowest concentration of compound that inhibited visible growth. A mirror reader was used to assist in determining the MIC endpoint.

[2] = system: Mycobacterium tuberculosis H37Rv; test: Mycobacterium tuberculosis H37Rv inhibition assay (MIC, resazurin fluorescence); conditions: ATCC 25618 / H37Rv, 144 h, H37Rv strain (ATCC25618), Middlebrook 7H9, six days at 37° C. then resazurin 48 hours
[3] = system: gram-positive organisms i) Staphylococcus aureus, ii) Streptococcus pneumoniae, iii) Enterococcus faecalis and gram-negative organisms iv) Haemophilus …; test: General antimicrobial activity assay (whole-cell, CLSI broth microdilution, MIC); conditions: organisms i)-vi) of the antimicrobial activity assay
Experimental: as §1, §2, §3, §4, §5

| SMILES | MIC [1] | MIC [2] | activity against organisms i)-vi) [3] |
| --- | --- | --- | --- |
| O=c1ccc2ncc(F)cc2n1CCN1CCC(NCc2ccc(F)cc2)CC1 [Example 14, 7-Fluoro-1-[2-(4-{[(4-fluorophenyl)methyl]amino}-1-piperidinyl)ethyl]-1,5-naphthyridin-2(1H)-one] | 4 µg/mL (≈ 10 µM) | ≤ 2.4 µg/mL | – |
| O=c1ccc2ncccc2n1CCN1CCC(NCc2cccc(Cl)c2)CC1 [Example 57, 1-[2-(4-{[(3-chlorophenyl)methyl]amino}-1-piperidinyl)ethyl]-1,5-naphthyridin-2(1H)-one] | 4 µg/mL (≈ 10.1 µM) | ≤ 2.4 µg/mL | – |
| O=c1ccc2ncccc2n1CCN1CCC(NCc2cc(Cl)cc(Cl)c2)CC1 [Example 58, 1-[2-(4-{[(3,5-dichlorophenyl)methyl]amino}-1-piperidinyl)ethyl]-1,5-naphthyridin-2(1H)-one] | – | – | no activity |
| O=c1ccc2ncc(F)cc2n1CCN1CCC(NCc2nc(Br)cs2)CC1 [Example 60, 1-[2-(4-{[(4-bromo-1,3-thiazol-2-yl)methyl]amino}-1-piperidinyl)ethyl]-7-fluoro-1,5-naphthyridin-2(1H)-one] | 32 µg/mL (≈ 68.6 µM) | – | – |
| Cc1ncc(CNC2CCN(CCn3c(=O)ccc4ncc(F)cc43)CC2)[nH]1.O=C(O)C(F)(F)F [Example 119, 7-fluoro-1-[2-(4-{[(2-methyl-1H-imidazol-4-yl)methyl]amino}-1-piperidinyl)ethyl]-1,5-naphthyridin-2(1H)-one trifluoroacetate] | > 64 µg/mL | – | – |
| Cc1ncc(CN[C@H]2CCN(CCn3c(=O)ccc4ncc(F)cc43)C[C@H]2O)cc1F [Example 128, 7-fluoro-1-[2-((3R,4S)-4-{[(5-fluoro-6-methyl-3-pyridinyl)methyl]amino}-3-hydroxy-1-piperidinyl)ethyl]-1,5-naphthyridin-2(1H)-one] | 32 µg/mL (≈ 74.5 µM) | ≤ 2.4 µg/mL | – |
